Earlier results as cited in PubChem BioAssay AID1259409 (Chemical Carcinogenesis Research Information System (CCRIS), 2018).
Where “and” joins values, the source holds several entries; their conditions need not be identical. Equal entries are not always repeated.

Tested on: rodent chemically induced tumor inhibition, incidence and multiplicity
Assay: CCRIS tumor inhibitor studies
Conditions: for tumour outcome (control, treated, inhibition, significance): Carcinogen: 7,12-DIMETHYLBENZ[A]ANTHRACENE, 57-97-6

## COc1ccc2c(c1)c(CC(=O)O)c(C)n2C(=O)c1ccc(Cl)cc1
Carcinogen: 4-HYDROXYBUTYL(BUTYL)NITROSAMINE [3817-11-6], Dose [Inhibitor]: 20 MG/KG IN DIET 1 WK BEFORE CARCINOGEN (STUDY DURATION: 32 WK), Route [Inhibitor]: DIET, Species: MOUSE, Strain/Sex: B6D2F1/MALE, Target Tissue: Type of Lesion: BLADDER: CARCINOMA, Dose [Carcinogen]: 7.5 MG/WK FOR 12 WK
  outcome: 32, 3, 91%
Carcinogen: 4-HYDROXYBUTYL(BUTYL)NITROSAMINE [3817-11-6], Dose [Inhibitor]: 20 MG/KG IN DIET 20 WK AFTER LAST CARCINOGEN DOSE (STUDY DURATION: 61 WK), Route [Inhibitor]: DIET, Species: MOUSE, Strain/Sex: B6D2F1/MALE, Target Tissue: Type of Lesion: BLADDER: CARCINOMA, Dose [Carcinogen]: 7.5 MG/WK FOR 12 WK
  outcome: 66, 42, 36%
Carcinogen: 4-HYDROXYBUTYL(BUTYL)NITROSAMINE [3817-11-6], Dose [Inhibitor]: 20 MG/KG IN DIET FOR 30 WK AT 1 WK AFTER LAST CARCINOGEN TREATMENT (STUDY DURATION: 42 WK), Route [Inhibitor]: DIET, Species: MOUSE, Strain/Sex: B6D2F1/MALE, Target Tissue: Type of Lesion: BLADDER: CARCINOMA, Dose [Carcinogen]: 7.5 MG/WK FOR 12 WK
  outcome: 31, 7, 77%
Dose [Inhibitor]: 0, 0.004% IN 20% FAT DIET CONTAINING 0.5% LINOLEIC ACID BEGINNING 7 D POST CARCINOGEN DOSE AND CONTINUING FOR DURATION O, Route [Inhibitor]: ORAL, Species: RAT, Strain/Sex: SPRAGUE-DAWLEY/FEMALE, Target Tissue: Type of Lesion: MAMMARY GLAND: ADENOCARCINOMA, Dose [Carcinogen]: 5 MG AT 50-53 DAYS OF AGE, Promoter: NONE USED
  tumour outcome (control, treated, inhibition, significance): 56%, 62%, -11%, not calculated
Dose [Inhibitor]: 0, 0.004% IN 20% FAT DIET CONTAINING 4% LINOLEIC ACID BEGINNING 7 D POST CARCINOGEN DOSE AND CONTINUING FOR DURATION OF, Route [Inhibitor]: ORAL, Species: RAT, Strain/Sex: SPRAGUE-DAWLEY/FEMALE, Target Tissue: Type of Lesion: MAMMARY GLAND: ADENOCARCINOMA, Dose [Carcinogen]: 5 MG AT 50-53 DAYS OF AGE, Promoter: NONE USED
  tumour outcome (control, treated, inhibition, significance): 53%, 39%, 26%, not calculated
Dose [Inhibitor]: 0, 0.004% IN 20% FAT DIET CONTAINING 12% LINOLEIC ACID BEGINNING 7 D POST CARCINOGEN DOSE AND CONTINUING FOR DURATION OF, Route [Inhibitor]: ORAL, Species: RAT, Strain/Sex: SPRAGUE-DAWLEY/FEMALE, Target Tissue: Type of Lesion: MAMMARY GLAND: ADENOCARCINOMA, Dose [Carcinogen]: 5 MG AT 50-53 DAYS OF AGE, Promoter: NONE USED
  tumour outcome (control, treated, inhibition, significance): 69%, 50%, 28%, not calculated
Dose [Inhibitor]: 0, 0.005% IN HIGH-FAT (20% CORN OIL) DIET BEGINNING 7 D POST CARCINOGEN DOSE (STUDY DURATION: 20 WK), Route [Inhibitor]: ORAL, Species: RAT, Strain/Sex: SPRAGUE-DAWLEY/FEMALE, Target Tissue: Type of Lesion: MAMMARY GLAND: ADENOCARCINOMA, Dose [Carcinogen]: 5 MG ONCE, Promoter: NONE USED
  tumour outcome (control, treated, inhibition, significance): 26/32 (81%), 10/33 (30%), 63%, not calculated
Dose [Inhibitor]: 0, 0.005% IN HIGH-FAT DIET BEGINNING 7 D POST CARCINOGEN TREATMENT (STUDY DURATION: 48 WK), Route [Inhibitor]: ORAL, Species: RAT, Strain/Sex: SPRAGUE-DAWLEY/FEMALE, Target Tissue: Type of Lesion: MAMMARY GLAND: ADENOCARCINOMA, Dose [Carcinogen]: 5 MG ONCE AT 50 D OF AGE, Promoter: NONE USED
  tumour outcome (control, treated, inhibition, significance): 93%, 47%, 49%, p<0.01
Dose [Inhibitor]: 0, 0.005% IN LOW-FAT (0.5% CORN OIL) DIET BEGINNING 7 D POST CARCINOGEN DOSE (STUDY DURATION: 20 WK), Route [Inhibitor]: ORAL, Species: RAT, Strain/Sex: SPRAGUE-DAWLEY/FEMALE, Target Tissue: Type of Lesion: MAMMARY GLAND: ADENOCARCINOMA, Dose [Carcinogen]: 5 MG ONCE, Promoter: NONE USED
  tumour outcome (control, treated, inhibition, significance): 9/33 (27%), 11/32 (34%), -26%, not calculated
Dose [Inhibitor]: 0, 0.005% IN LOW-FAT DIET BEGINNING 7 D POST CARCINOGEN TREATMENT (STUDY DURATION: 48 WK), Route [Inhibitor]: ORAL, Species: RAT, Strain/Sex: SPRAGUE-DAWLEY/FEMALE, Target Tissue: Type of Lesion: MAMMARY GLAND: ADENOCARCINOMA, Dose [Carcinogen]: 5 MG ONCE AT 50 D OF AGE, Promoter: NONE USED
  tumour outcome (control, treated, inhibition, significance): 40%, 33%, 18%, not significant
Dose [Inhibitor]: 0, 0.1 UMOL 2/WK FOR 18 WK APPLIED 10-15 MIN PRIOR TO EACH PROMOTER DOSE (STUDY DURATION: 20 WK), Route [Inhibitor]: DERMAL, Species: MOUSE, Strain/Sex: CD-1/FEMALE, Target Tissue: Type of Lesion: SKIN: TUMOR, Dose [Carcinogen]: 200 NMOL ONCE, Promoter: 12-O-TETRADECANOYL-13-ACETATE, 16561-29-8
  tumour outcome (control, treated, inhibition, significance): 95%, 80%, 16%, not significant
Dose [Inhibitor]: 0, 0.3 UMOL 2/WK FOR 18 WK APPLIED 10-15 MIN PRIOR TO EACH PROMOTER DOSE (STUDY DURATION: 20 WK), Route [Inhibitor]: DERMAL, Species: MOUSE, Strain/Sex: CD-1/FEMALE, Target Tissue: Type of Lesion: SKIN: TUMOR, Dose [Carcinogen]: 200 NMOL ONCE, Promoter: 12-O-TETRADECANOYL-13-ACETATE, 16561-29-8
  tumour outcome (control, treated, inhibition, significance): 100%, 95%, 5%, not significant
Dose [Inhibitor]: 0, 20 UG/ML IN DRINKING WATER 24 HR/D 3 D/WK FOR 26 WK BEGINNING AT 45 D OF AGE (STUDY DURATION: 26 WK), Route [Inhibitor]: ORAL, Species: RAT, Strain/Sex: SD/FEMALE, Target Tissue: Type of Lesion: MAMMARY GLAND: TUMOR, Dose [Carcinogen]: 10 UG/ANIMAL IN CORN OIL INTRAGASTRICALLY ON 45, 50, 55 D OF AGE
  tumour outcome (control, treated, inhibition, significance): 100%, 37%, 63%, p<0.001
Dose [Inhibitor]: 0.004% DIET FOR 22 WK STARTING 3 D AFTER CARCINOGEN ADMINISTRATION (STUDY DURATION: 22 WK), Route [Inhibitor]: ORAL, Species: RAT, Strain/Sex: SPRAGUE-DAWLEY/FEMALE, Target Tissue: Type of Lesion: MAMMARY GLANDS: ADENOCARCINOMA, Dose [Carcinogen]: 5 MG ONCE, Promoter: NONE USED
  tumour outcome (control, treated, inhibition, significance): 44%, 41%, 7%, not significant and 59%, 38%, 36%, not significant
Dose [Inhibitor]: 28 NMOL IN 0.2 ML ACETONE APPLIED 2/WK FOR 16 WK 5 HR BEFORE EACH PROMOTER APPLICATION BEGINNING 2 WK POST CARCINOGEN TR, Route [Inhibitor]: DERMAL, Species: MOUSE, Strain/Sex: CD-1/FEMALE, Target Tissue: Type of Lesion: SKIN: PAPILLOMA, Dose [Carcinogen]: 0.2 UMOL IN 0.2 ML ACETONE ONCE, Promoter: 12-O-TETRADECANOYLPHORBOL-13-ACETATE, 16561-29-8
  tumour outcome (control, treated, inhibition, significance): 100%, 97%, 3%, not significant
Dose [Inhibitor]: 280 NMOL IN 0.2 ML ACETONE APPLIED 2/WK FOR 16 WK 5 HR BEFORE EACH PROMOTER APPLICATION BEGINNING 2 WK POST CARCINOGEN D, Route [Inhibitor]: DERMAL, Species: MOUSE, Strain/Sex: CD-1/FEMALE, Target Tissue: Type of Lesion: SKIN: PAPILLOMA, Dose [Carcinogen]: 0.2 UMOL IN 0.2 ML ACETONE ONCE, Promoter: 12-O-TETRADECANOYLPHORBOL-13-ACETATE, 16561-29-8
  tumour outcome (control, treated, inhibition, significance): 100%, 88%, 12%, not significant
Dose [Inhibitor]: 280 NMOL IN 0.2 ML ACETONE APPLIED 2/WK FOR 20 WK 2 HR BEFORE EACH PROMOTER APPLICATION BEGINNING 2 WK POST CARCINOGEN D, Route [Inhibitor]: DERMAL, Species: MOUSE, Strain/Sex: CD-1/FEMALE, Target Tissue: Type of Lesion: SKIN: PAPILLOMA, Dose [Carcinogen]: 0.2 UMOL IN 0.2 ML ACETONE ONCE, Promoter: 12-O-TETRADECANOYLPHORBOL-13-ACETATE, 16561-29-8
  tumour outcome (control, treated, inhibition, significance): 90%, 84%, 7%, not significant
Carcinogen: ACETOXYMETHYL(METHYLNITROSAMINE), 56856-83-8, Dose [Inhibitor]: 0, 0.001% IN DRINKING WATER FOR 10 WK ADMINISTERED CONCURRENTLY WITH CARCINOGEN TREATMENT (STUDY DURATION: 31 WK), Route [Inhibitor]: ORAL, Species: RAT, Strain/Sex: SPRAGUE-DAWLEY/MALE, Target Tissue: Type of Lesion: LARGE BOWEL: TUMORS, Dose [Carcinogen]: 2 MG/KG BW 1/WK FOR 10 WK, Promoter: NONE USED
  outcome: 28/29 (97%), 30/30 (100%), -3%, not significant at 21 wk; 20/20 (100%), 17/17 (1
Carcinogen: ACETOXYMETHYL(METHYLNITROSAMINE), 56856-83-8, Dose [Inhibitor]: 0, 0.001% IN DRINKING WATER FOR 10 WK BEGINNING POST CARCINOGEN TREATMENT (STUDY DURATION: 31 WK), Route [Inhibitor]: ORAL, Species: RAT, Strain/Sex: SPRAGUE-DAWLEY/MALE, Target Tissue: Type of Lesion: LARGE BOWEL: TUMORS, Dose [Carcinogen]: 2 MG/KG BW 1/WK FOR 10 WK, Promoter: NONE USED
  outcome: 28/29 (97%), 29/29 (100%), -3%, not significant at 21 wk; 20/20 (100%), 18/18 (1
Carcinogen: ACETOXYMETHYL(METHYLNITROSAMINE), 56856-83-8, Dose [Inhibitor]: 0, 0.001% IN DRINKING WATER FOR 20 WK ADMINISTERED CONCURRENTLY WITH CARCINOGEN TREATMENT AND CONTINUED FOR 10 WK POST C, Route [Inhibitor]: ORAL, Species: RAT, Strain/Sex: SPRAGUE-DAWLEY/MALE, Target Tissue: Type of Lesion: LARGE BOWEL: TUMORS, Dose [Carcinogen]: 2 MG/KG BW 1/WK FOR 10 WK, Promoter: NONE USED
  outcome: 28/29 (97%), 27/30 (90%), 7%, not significant at 21 wk; 20/20 (100%), 20/20 (100
